# Assay results as given in patent US20060045953A1 (priority 2004, published 2006).
# Biological target: T1, hT1R1/hT1R3 umami receptor (Homo sapiens, UniProt Q7RTX0+Q7RTX1)
# T1 construct: expressed in transfected cells; host or cells: HEK293 derivative stably expressing Gα15, clone I-17, expression induced with mifepristone
# T1 sequence (Q7RTX1 21-841): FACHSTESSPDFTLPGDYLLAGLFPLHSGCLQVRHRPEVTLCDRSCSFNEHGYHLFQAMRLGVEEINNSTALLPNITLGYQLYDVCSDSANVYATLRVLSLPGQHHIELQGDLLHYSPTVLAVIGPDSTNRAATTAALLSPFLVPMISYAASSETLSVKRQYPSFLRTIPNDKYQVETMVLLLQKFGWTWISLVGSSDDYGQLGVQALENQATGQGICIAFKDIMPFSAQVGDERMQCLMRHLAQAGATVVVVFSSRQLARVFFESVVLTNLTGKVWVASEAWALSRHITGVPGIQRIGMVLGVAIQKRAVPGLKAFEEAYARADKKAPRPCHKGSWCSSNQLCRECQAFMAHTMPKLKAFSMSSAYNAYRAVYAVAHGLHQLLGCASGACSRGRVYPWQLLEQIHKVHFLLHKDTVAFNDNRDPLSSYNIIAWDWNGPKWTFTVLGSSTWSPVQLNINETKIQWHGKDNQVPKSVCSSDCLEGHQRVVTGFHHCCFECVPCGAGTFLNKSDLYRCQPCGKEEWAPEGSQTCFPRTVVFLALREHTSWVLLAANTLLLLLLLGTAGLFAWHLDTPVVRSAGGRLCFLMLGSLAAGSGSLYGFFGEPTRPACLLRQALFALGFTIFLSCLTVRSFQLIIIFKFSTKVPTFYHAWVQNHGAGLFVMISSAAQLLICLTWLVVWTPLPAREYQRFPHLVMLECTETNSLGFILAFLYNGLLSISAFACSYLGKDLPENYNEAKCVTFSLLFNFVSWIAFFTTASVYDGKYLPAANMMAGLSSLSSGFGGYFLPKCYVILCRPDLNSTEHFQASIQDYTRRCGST
# T1 sequence (Q7RTX0 21-852): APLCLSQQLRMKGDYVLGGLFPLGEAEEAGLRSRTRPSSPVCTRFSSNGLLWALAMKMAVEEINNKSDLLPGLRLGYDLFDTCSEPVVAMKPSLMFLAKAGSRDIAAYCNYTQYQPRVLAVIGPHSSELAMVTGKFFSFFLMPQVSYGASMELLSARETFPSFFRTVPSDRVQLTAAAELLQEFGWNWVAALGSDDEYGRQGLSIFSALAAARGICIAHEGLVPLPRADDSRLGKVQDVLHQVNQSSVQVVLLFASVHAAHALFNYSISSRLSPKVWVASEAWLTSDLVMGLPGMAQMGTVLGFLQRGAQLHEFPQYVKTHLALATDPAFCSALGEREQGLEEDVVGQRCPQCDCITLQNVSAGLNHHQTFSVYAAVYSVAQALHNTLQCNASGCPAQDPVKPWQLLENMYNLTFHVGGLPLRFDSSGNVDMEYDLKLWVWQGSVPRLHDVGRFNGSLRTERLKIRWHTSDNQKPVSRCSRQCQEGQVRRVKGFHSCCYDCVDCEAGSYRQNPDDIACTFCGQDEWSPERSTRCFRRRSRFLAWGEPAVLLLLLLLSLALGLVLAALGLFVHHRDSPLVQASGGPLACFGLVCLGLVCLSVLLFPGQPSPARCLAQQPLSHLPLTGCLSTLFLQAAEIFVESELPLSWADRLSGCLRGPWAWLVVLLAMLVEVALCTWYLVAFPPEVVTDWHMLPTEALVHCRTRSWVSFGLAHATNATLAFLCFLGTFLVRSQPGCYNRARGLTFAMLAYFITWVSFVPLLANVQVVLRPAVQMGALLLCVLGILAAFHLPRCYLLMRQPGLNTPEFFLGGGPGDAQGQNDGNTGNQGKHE
# Experiment: In vitro hT1R1/hT1R3 umami taste receptor activation assay (FLIPR, dose response)
# Format: cell-based
# Details: Table D, Umami Acrylamides; read-out: Umami EC50
row,EC50,Compound
1,1560 nM,"COc1ccc(/C=C/C(=O)NC(C)CCc2ccccc2)cc1OC (centres unmarked) [Example D16, (E)-3-(3,4-dimethoxyphenyl)-N-(4-phenylbutan-2-yl)acrylamide]"

# Same assay, conditions: opposite enantiomers compared; read-out: AFFINITY FOR T1R1/T1R3 SAVORY RECEPTOR EC50 UM
row,EC50,Compound
1,80 nM,"COc1ccc(C(=O)N[C@H]2CCc3ccccc32)cc1C [drawing 26, (S)-N-(2,3-dihydro-1H-inden-1-yl)-4-methoxy-3-methylbeuzamide]"
2,850 nM,"CCOc1ccc(C(=O)N[C@H]2CCc3ccccc32)cc1C [drawing 28, (S)-N-(2,3-dihydro-1H-inden-1-yl)-4-ethoxy-3-methylbenzamide]"
3,90 nM,"COc1cccc(C(=O)N[C@@H]2CCCc3ccccc32)c1N [drawing 29, (R)-2-amino-3-methoxy-N-(1,2,3,4-tetrahydronaphthalen-1-yl)benzamide]"

# Biological target: T2, hT1R2/hT1R3 sweet receptor (Homo sapiens, UniProt Q7RTX0+Q8TE23)
# T2 construct: expressed in transfected cells; host or cells: HEK293 derivative stably expressing Gα15, clone S-9
# T2 sequence (Q8TE23 20-839): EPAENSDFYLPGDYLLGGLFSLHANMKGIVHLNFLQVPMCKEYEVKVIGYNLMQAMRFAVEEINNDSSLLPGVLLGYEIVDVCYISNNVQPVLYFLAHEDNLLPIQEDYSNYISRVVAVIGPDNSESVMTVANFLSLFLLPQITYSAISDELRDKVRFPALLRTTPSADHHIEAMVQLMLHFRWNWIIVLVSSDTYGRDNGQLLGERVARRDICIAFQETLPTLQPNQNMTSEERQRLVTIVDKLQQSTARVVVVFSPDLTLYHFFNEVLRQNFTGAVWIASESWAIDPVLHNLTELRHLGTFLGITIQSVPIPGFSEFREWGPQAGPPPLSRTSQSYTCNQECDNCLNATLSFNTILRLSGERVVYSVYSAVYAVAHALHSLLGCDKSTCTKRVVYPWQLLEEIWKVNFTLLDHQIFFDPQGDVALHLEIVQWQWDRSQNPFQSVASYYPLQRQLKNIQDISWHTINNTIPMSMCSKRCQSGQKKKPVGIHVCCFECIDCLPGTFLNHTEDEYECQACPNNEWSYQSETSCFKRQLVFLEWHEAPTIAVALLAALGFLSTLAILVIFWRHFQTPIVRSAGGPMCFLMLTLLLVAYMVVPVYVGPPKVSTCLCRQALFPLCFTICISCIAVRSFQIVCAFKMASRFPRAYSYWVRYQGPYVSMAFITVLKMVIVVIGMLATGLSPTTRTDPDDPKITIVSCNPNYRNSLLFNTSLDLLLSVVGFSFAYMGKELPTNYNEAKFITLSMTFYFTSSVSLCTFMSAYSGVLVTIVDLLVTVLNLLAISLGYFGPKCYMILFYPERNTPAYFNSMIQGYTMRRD
# T2 sequence (Q7RTX0 21-852): T1 sequence (Q7RTX0 21-852)
# Experiment: In vitro hT1R2/hT1R3 sweet taste receptor activation assay (FLIPR, dose response)
# Format: cell-based
# Details: read-out: EC50 for activation of a hT1R2/hT1R3 sweet receptor expressed in an HEK293 cell line
# Procedure: Activity was determined using an automated fluorometric imaging assay on a FLIPR instrument (Fluorometric Intensity Plate Reader, Molecular Devices, Sunnyvale, Calif.) (designated FLIPR assay). […] S-9 cells were grown for 24 hours at 37° C. S-9 cells were then loaded with the calcium dye Fluo-3AM (Molecular Probes, Eugene, Oreg.), 4 µM in a phosphate buffered saline (D-PBS) (Invitrogen, Carlsbad, Calif.), for 1 hour at room temperature. After replacement with 25 µl D-PBS, stimulation was performed in the FLIPR instrument and at room temperature by the addition of 25 µl D-PBS supplemented with different stimuli at concentrations corresponding to twice the desired final level.
# For dose-responses analysis, stimuli were presented in duplicates at 10 different concentrations ranging from 60 nM to 30 µM. Activities were normalized to the response obtained with 400 mM D-fructose, a concentration that elicits maximum receptor response. EC50s were determined using a non-linear regression algorithm (using a Senomyx, Inc. software), where the Hill slope, bottom asymptotes and top asymptotes were allow to vary.
row,EC50,Compound
1,1480 nM,"Cc1ccc2c(c1)C(NC(=O)c1cccc(Cl)c1O)CCC2 (centres unmarked) [Example 178, 3-Chloro-2-hydroxy-N-(7-methyl-1,2,3,4-tetrahydronaphthalen-1-yl)benzamide]"
2,4500 nM,CCOc1cccc2c1CCCC2NC(=O)c1conc1C (centres unmarked) [Example 181]
3,2800 nM,"Cc1cccc2c1CCC[C@H]2NC(=O)c1conc1C [Example 182, (R)-3-Methyl-N-(5-methyl-1,2,3,4-tetrahydronaphthalen-1-yl)isoxazole-4-carboxamide]"
4,260 nM,"COc1ccc2c(c1)[C@H](NC(=O)c1cccc(Cl)c1O)CCC2 [Example 184, (R)-3-Chloro-2-hydroxy-N-(7-methoxy-1,2,3,4-tetrahydronaphthalen-1-yl)benzamide]"
5,500 nM,"COc1cccc2c1CCC(C)C2NC(=O)c1cccc(Cl)c1O (centres unmarked) [Example 186, 3-Chloro-2-hydroxy-N-(5-methoxy-2-methyl-1,2,3,4-tetrahydronaphthalen-1-yl)benzamide]"
6,400 nM,"CCc1nocc1C(=O)N[C@@H]1CCCc2c(OC)cccc21 [Example 187, (R)-3-Ethyl-N-(5-methoxy-1,2,3,4-tetrahydronaphthalen-1-yl)isoxazole-4-carboxamide]"
7,240 nM,"CCCc1nocc1C(=O)N[C@@H]1CCCc2c(OC)cccc21 [Example 188, (R)-3-Propyl-N-(5-methoxy-1,2,3,4-tetrahydronaphthalen-1-yl)isoxazole-4-carboxamide]"
8,360 nM,"CCCCc1nocc1C(=O)N[C@@H]1CCCc2c(OC)cccc21 [Example 189, (R)-3-Butyl-N-(5-methoxy-1,2,3,4-tetrahydronaphthalen-1-yl)isoxazole-4-carboxamide]"
9,950 nM,"COc1cccc2c1CCC[C@H]2NC(=O)c1conc1C [Example 190, (R)-3-methyl-N-(5-methoxy-1,2,3,4-tetrahydronaphthalen-1-yl)isoxazole-4-carboxamide]"

# Second part, the molecule before the results:
row,Compound,EC50
1,"Cc1c(F)c(F)c(C(=O)N[C@@H](C)C(C)C)c(F)c1F [Example 163, (S)-2,3,5,6-tetrafluoro-4-methyl-N-(3-methylbutan-2-yl)benzamide]",600 nM
2,"Cc1cccc(C)c1C(=O)NC1CCCCC1C (centres unmarked) [Example 168, 2,6-dimethyl-N-(2-methylcyclohexyl)benzamide]",1880 nM
3,"COc1cc(C)c(C(=O)NC2CCCCC2C)c(C)c1 (centres unmarked) [Example 169, 4-methoxy-2,6-dimethyl-N-(2-methylcyclohexyl)benzamide]",2100 nM
4,"O=C(N[C@@H]1CCCc2ccccc21)c1ccoc1 [Example 170, (R)-N-(1,2,3,4-tetrahydronaphthalen-1-yl)furan-3-carboxamide]",6600 nM
5,"Cc1cc(Cl)ccc1NC(=O)N1Cc2ccccc2C1 [Example 172, N-(4-chloro-2-methylphenyl)isoindoline-2-carboxamide]",890 nM
6,"COc1ccc(NC(=O)N2Cc3ccccc3C2)c(C)c1 [Example 173, N-(4-methoxy-2-methylphenyl)isoindoline-2-carboxamide]",4500 nM
7,"CC1CCc2ccccc2C1NC(=O)c1cccc(Cl)c1O (centres unmarked) [Example 179, 3-Chloro-2-hydroxy-N-(2-methyl-1,2,3,4-tetrahydronaphthalen-1-yl)benzamide]",380 nM
8,"O=C(N[C@@H]1CCOc2ccccc21)c1cccc(Cl)c1O [Example 185, (R)-3-Chloro-N-(3,4-dihydro-2H-chromen-4-yl)-2-hydroxybenzamide]",1030 nM
9,"C=CCc1c(F)c(F)c(C(=O)N[C@@H](C)C(C)C)c(F)c1F [Example 191, (S)-4-allyl-2,3,5,6-tetrafluoro-N-(3-methylbutan-2-yl)benzamide]",140 nM
10,"CCCc1c(F)c(F)c(C(=O)N[C@@H](C)C(C)C)c(F)c1F [Example 192, (S)-2,3,5,6-tetrafluoro-N-(3-methylbutan-2-yl)-4-propylbenzamide]",140 nM
11,"Cc1cccc2c1CN(C(=O)Nc1c(F)cc(Br)cc1F)C2 [Example 193, N-(4-bromo-2,6-difluorophenyl)-4-methylisoindoline-2-carboxamide]",20 nM
12,"Cc1cc(F)c(NC(=O)N2Cc3cccc(C)c3C2)c(F)c1 [Example 194, N-(2,6-difluoro-4-methylphenyl)-4-methylisoindoline-2-carboxamide]",60 nM
13,"COc1cc(F)c(NC(=O)N2Cc3cccc(C)c3C2)c(F)c1 [Example 195, N-(2,6-difluoro-4-methoxyphenyl)-4-methylisoindoline-2-carboxamide]",67 nM
